# Measured values taken from the supplement of paper PMC11208160.
# Test: recombinant UMI read abundance after kanamycin selection (control-corrected) (log10(CPM+1)); higher = more efficient recombination; extreme values may be limits of the assay; sequences stand for … in AGTGCAGAGAAAATCGGCCAGTTTTCTCTGCCTGCAGTCCGCATGCCGTGGGACCCCTTGGGTTCTAACCTGTTGCCTAGATTTATGCAGCGGACTGCCTTTCTCCCAAAGTGATAAACCGG…AGGTTGGTTTCACT; site = the 11-nt donor
# In short: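 Counts of recombinant UMIs were reported as log10(CPM+1). Before that, they were converted to CPM, averaged over replicates and scaled using control-derived factors. They came from PCR across the donor–target junction after Escherichia coli carrying the pair library and target plasmid was plated on IPTG (0.07 mM) plus kanamycin, or unselected, in two replicates each.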
# 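Also: IS621 bridge recombinase in Escherichia coli cells against a fixed T5 target plasmid.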
row,Sequence,recombinant UMI read abundance (log10)
1,TCTATAGCATGGACCGGTTTTCCCGGTAATCCGTATTTGAC (site TCTATAGCTGT),0
2,TCTGAAGCATGGACCGGTTTTCCCGGTAATCCGTATTTGGT (site TCTGAAGCTAC),0.00288
3,TCTGAATCATGGACCGGTTTTCCCGGTAATCCGTATTTGAC (site TCTGAATCTGT),0
4,TCTGCGGCATGGACCGGTTTTCCCGGTAATCCGTATTTGAT (site TCTGCGGCTAT),0.0332
5,TCTGCGGCATGGACCGGTTTTCCCGGTAATCCGTATTTGTT (site TCTGCGGCTAA),0.0132
6,TCTGTTCCATGGACCGGTTTTCCCGGTAATCCGTATTTGAG (site TCTGTTCCTCT),0.0103
7,TCTTAAACATGGACCGGTTTTCCCGGTAATCCGTATTTGCA (site TCTTAAACTTG),0
8,TCTTACACATGGACCGGTTTTCCCGGTAATCCGTATTTGCC (site TCTTACACTGG),0.565
9,TCTTCAGCATGGACCGGTTTTCCCGGTAATCCGTATTTGTG (site TCTTCAGCTCA),0.0132
10,TCTTCATCATGGACCGGTTTTCCCGGTAATCCGTATTTGTA (site TCTTCATCTTA),0.00251
11,TCTTTCTCATGGACCGGTTTTCCCGGTAATCCGTATTTGCT (site TCTTTCTCTAG),0
12,TGAAAATCATGGACCGGTTTTCCCGGTAATCCGTATTTGTG (site TGAAAATCTCA),1
13,TGAAGGACATGGACCGGTTTTCCCGGTAATCCGTATTTGAC (site TGAAGGACTGT),2.4
14,TGAATAACATGGACCGGTTTTCCCGGTAATCCGTATTTGCA (site TGAATAACTTG),1.38
15,TGACCGACATGGACCGGTTTTCCCGGTAATCCGTATTTGAT (site TGACCGACTAT),0.561
16,TGAGAGACATGGACCGGTTTTCCCGGTAATCCGTATTTGCG (site TAAGAGACTCG),2.07
17,TGAGAGACATGGACCGGTTTTCCCGGTAATCCGTATTTGCG (site TCAGAGACTCG),0.426
18,TGAGAGACATGGACCGGTTTTCCCGGTAATCCGTATTTGCG (site TGAGAGACTCG),2.22
19,TGAGAGACATGGACCGGTTTTCCCGGTAATCCGTATTTGCG (site TTAGAGACTCG),1.19
20,TGAGGTGCATGGACCGGTTTTCCCGGTAATCCGTATTTGGT (site TGAGGTGCTAC),0.98
21,TGAGGTTCATGGACCGGTTTTCCCGGTAATCCGTATTTGAC (site TGAGGTTCTGT),2.17
22,TGAGTCGCATGGACCGGTTTTCCCGGTAATCCGTATTTGTG (site TGAGTCGCTCA),0.474
23,TGATAATCATGGACCGGTTTTCCCGGTAATCCGTATTTGCT (site CGATCATCTAG),0

row,Sequence,recombinant UMI read abundance (log10)
1,TGATAATCATGGACCGGTTTTCCCGGTAATCCGTATTTGCT (site TGATAATCTAG),2.45
2,TGATTCCCATGGACCGGTTTTCCCGGTAATCCGTATTTGAC (site TGATTCCCTGT),0.794
3,TGCAAGGCATGGACCGGTTTTCCCGGTAATCCGTATTTGGT (site TGCAAGGCTAC),0.43
4,TGCAAGGCATGGACCGGTTTTCCCGGTAATCCGTATTTGGT (site TGCCAGGCTAC),0.0164
5,TGCAAGGCATGGACCGGTTTTCCCGGTAATCCGTATTTGGT (site TGCGAGGCTAC),0.0243
6,TGCAAGGCATGGACCGGTTTTCCCGGTAATCCGTATTTGGT (site TGCTAGGCTAC),0.0166
7,TGCAATCCATGGACCGGTTTTCCCGGTAATCCGTATTTGTT (site CGGAATCCTAA),0.0106
8,TGCAATCCATGGACCGGTTTTCCCGGTAATCCGTATTTGTT (site TGCAATCCTAA),0.672
9,TGCAATTCATGGACCGGTTTTCCCGGTAATCCGTATTTGCC (site TACAATTCTGG),0
10,TGCAATTCATGGACCGGTTTTCCCGGTAATCCGTATTTGCC (site TCCAATTCTGG),0
11,TGCAATTCATGGACCGGTTTTCCCGGTAATCCGTATTTGCC (site TGCAATTCTGG),0.00516
12,TGCAATTCATGGACCGGTTTTCCCGGTAATCCGTATTTGCC (site TTCAATTCTGG),0
13,TGCACGACATGGACCGGTTTTCCCGGTAATCCGTATTTGCC (site TGCACGACTGG),1.52
14,TGCACGTCATGGACCGGTTTTCCCGGTAATCCGTATTTGTC (site TGCACGTCTGA),1.26
15,TGCACTGCATGGACCGGTTTTCCCGGTAATCCGTATTTGCA (site TGCACTGCTTG),0.198
16,TGCCACGCATGGACCGGTTTTCCCGGTAATCCGTATTTGTC (site TGCCACGCTGA),2.07
17,TGCCAGGCATGGACCGGTTTTCCCGGTAATCCGTATTTGGT (site TGCAAGGCTAC),0.016
18,TGCCAGGCATGGACCGGTTTTCCCGGTAATCCGTATTTGGT (site TGCCAGGCTAC),0.00408
19,TGCCAGGCATGGACCGGTTTTCCCGGTAATCCGTATTTGGT (site TGCGAGGCTAC),0.0315
20,TGCCAGGCATGGACCGGTTTTCCCGGTAATCCGTATTTGGT (site TGCTAGGCTAC),0.0336
21,TGCCATGCATGGACCGGTTTTCCCGGTAATCCGTATTTGGA (site TGCCATGCTTC),0.294
22,TGCCGAACATGGACCGGTTTTCCCGGTAATCCGTATTTGAT (site TGCCGAACTAT),1.59
23,TGCCGACCATGGACCGGTTTTCCCGGTAATCCGTATTTGTT (site TGCCGACCTAA),0.0263

row,Sequence,recombinant UMI read abundance (log10)
1,TGCCGTTCATGGACCGGTTTTCCCGGTAATCCGTATTTGAG (site TGCCGTTCTCT),0.00558
2,TGCCTAACATGGACCGGTTTTCCCGGTAATCCGTATTTGAA (site TGCCTAACTTT),0.0425
3,TGCCTAGCATGGACCGGTTTTCCCGGTAATCCGTATTTGTT (site AGCCTAGCTAA),0.014
4,TGCCTAGCATGGACCGGTTTTCCCGGTAATCCGTATTTGTT (site CGCCTAGCTAA),0.0169
5,TGCCTAGCATGGACCGGTTTTCCCGGTAATCCGTATTTGTT (site GGCCTAGCTAA),0.0245
6,TGCCTAGCATGGACCGGTTTTCCCGGTAATCCGTATTTGTT (site TGCCTAGCTAA),0.0135
7,TGCCTCTCATGGACCGGTTTTCCCGGTAATCCGTATTTGCG (site TGCCTCTCTCG),0.00512
8,TGCGAGGCATGGACCGGTTTTCCCGGTAATCCGTATTTGGT (site TGCAAGGCTAC),0.35
9,TGCGAGGCATGGACCGGTTTTCCCGGTAATCCGTATTTGGT (site TGCCAGGCTAC),0.0134
10,TGCGAGGCATGGACCGGTTTTCCCGGTAATCCGTATTTGGT (site TGCGAGGCTAC),0.0084
11,TGCGAGGCATGGACCGGTTTTCCCGGTAATCCGTATTTGGT (site TGCTAGGCTAC),0.242
12,TGCGGAACATGGACCGGTTTTCCCGGTAATCCGTATTTGCG (site TGCGGAACTCG),0.885
13,TGCGGCACATGGACCGGTTTTCCCGGTAATCCGTATTTGCC (site TGCGGCACTGG),1.44
14,TGCGGCACATGGACCGGTTTTCCCGGTAATCCGTATTTGGA (site TGCGGCACTTC),0.0197
15,TGCGGGCCATGGACCGGTTTTCCCGGTAATCCGTATTTGCT (site TGCGGGCCTAG),0
16,TGCGGTTCATGGACCGGTTTTCCCGGTAATCCGTATTTGAA (site TGCGGTTCTTT),0.557
17,TGCTACGCATGGACCGGTTTTCCCGGTAATCCGTATTTGGT (site TGCTAAGCTAC),0.00535
18,TGCTACGCATGGACCGGTTTTCCCGGTAATCCGTATTTGGT (site TGCTACGCTAC),0.202
19,TGCTACGCATGGACCGGTTTTCCCGGTAATCCGTATTTGGT (site TGCTAGGCTAC),0
20,TGCTACGCATGGACCGGTTTTCCCGGTAATCCGTATTTGGT (site TGCTATGCTAC),0.00567
21,TGCTAGCCATGGACCGGTTTTCCCGGTAATCCGTATTTGGT (site TGCTAGACTAC),0.00818
22,TGCTAGCCATGGACCGGTTTTCCCGGTAATCCGTATTTGGT (site TGCTAGCCTAC),0.0034
